Measurements from PubChem BioAssay AID256 (DTP/NCI, 2004).
Where “and” joins values, the source holds several entries; their conditions need not be identical. Identical values can stand only once. Toxic doses and inconclusive results are not listed.

System: CD2F1 mice, L1210 leukemia ip, survival T/C
Assay: NCI In Vivo Anticancer Drug Screen. Data for tumor model L1210 Leukemia (intraperitoneal) in CD2F1 (CDF1) mice
Conditions: higher = longer survival
In short: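 Ratio T/C, where T is the treated-group value and C the vehicle-dosed control value, from mice implanted with a transplantable tumor.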

[1] = endpoint: mean survival time, dose: 400.0 mg/kg/injection, schedule: Q04DX003 (ip), vehicle: saline with Tween-80
[2] = endpoint: mean survival time, dose: 100.0 mg/kg/injection, schedule: Q01DX009 (ip), vehicle: saline with Tween-80
[3] = endpoint: mean survival time, dose: 200.0 mg/kg/injection, schedule: Q01DX009 (ip), vehicle: saline with Tween-80
[4] = endpoint: mean survival time, dose: 400.0 mg/kg/injection, schedule: Q01DX009 (ip), vehicle: saline with Tween-80
[5] = endpoint: mean survival time, dose: 100.0 mg/kg/injection, schedule: Q04DX003 (ip), vehicle: saline with Tween-80
[6] = endpoint: mean survival time, dose: 200.0 mg/kg/injection, schedule: Q04DX003 (ip), vehicle: saline with Tween-80

With O=C1NC(=O)NC(C(=O)O)N1 the T/C (endpoint: mean survival time, dose: 1.56 mg/kg/injection, schedule: Q01DX009 (ip), vehicle: DMSO) was 92 % of control, the T/C (endpoint: mean survival time, dose: 3.12 mg/kg/injection, schedule: Q01DX009 (ip), vehicle: DMSO) was 96 % of control and the T/C (endpoint: mean survival time, dose: 6.25 mg/kg/injection, schedule: Q01DX009 (ip), vehicle: DMSO) was 96 % of control. The T/C (endpoint: mean survival time, dose: 12.5 mg/kg/injection, schedule: Q01DX009 (ip), vehicle: DMSO) was 94 % of control and 98 % of control, the T/C (endpoint: mean survival time, dose: 25.0 mg/kg/injection, schedule: Q01DX009 (ip), vehicle: DMSO) was 97 % of control and 98 % of control and 101 % of control and the T/C (endpoint: mean survival time, dose: 50.0 mg/kg/injection, schedule: Q01DX009 (ip), vehicle: DMSO) was 97 % of control and 100 % of control. For the same compound, the T/C (endpoint: mean survival time, dose: 100.0 mg/kg/injection, schedule: Q01DX009 (ip), vehicle: DMSO) was 94 % of control and 97 % of control, the T/C (endpoint: mean survival time, dose: 200.0 mg/kg/injection, schedule: Q01DX009 (ip), vehicle: DMSO) was 102 % of control and the T/C (endpoint: mean survival time, dose: 400.0 mg/kg/injection, schedule: Q01DX009 (ip), vehicle: DMSO) was 98 % of control.

For CC(C)SC(C(=O)O)(c1ccccc1)c1ccccc1, the T/C (endpoint: mean survival time, dose: 75.0 mg/kg/injection, schedule: Q01DX001 (ip), vehicle: other) was 100 % of control, the T/C (endpoint: mean survival time, dose: 150.0 mg/kg/injection, schedule: Q01DX001 (ip), vehicle: other) was 98 % of control and the T/C (endpoint: mean survival time, dose: 300.0 mg/kg/injection, schedule: Q01DX001 (ip), vehicle: other) was 90 % of control.

With COc1cc(Cc2cnc(NC(C)=O)nc2NC(C)=O)cc(OC)c1OC the T/C [1] was 93 % of control.

In the case of O=NN(CCCl)C(=O)NCCc1cccc[n+]1[O-], the T/C (endpoint: mean survival time, dose: 1.56 mg/kg/injection, schedule: Q01DX001 (ip), vehicle: water) is reported as 108 % of control, the T/C (endpoint: mean survival time, dose: 3.13 mg/kg/injection, schedule: Q01DX001 (ip), vehicle: water) is reported as 116 % of control and the T/C (endpoint: mean survival time, dose: 6.25 mg/kg/injection, schedule: Q01DX001 (ip), vehicle: water) is reported as 121 % of control. The T/C (endpoint: mean survival time, dose: 25.0 mg/kg/injection, schedule: Q01DX001 (ip), vehicle: water) was 173 % of control, the T/C (endpoint: mean survival time, dose: 50.0 mg/kg/injection, schedule: Q01DX001 (ip), vehicle: water) was 309 % of control and the T/C (endpoint: mean survival time, dose: 100.0 mg/kg/injection, schedule: Q01DX001 (ip), vehicle: water) was 240 % of control.

O=C(NCCNC(=O)c1ccccc1)c1ccccc1 was tested, and the T/C (endpoint: mean survival time, dose: 6.25 mg/kg/injection, schedule: Q04DX002 (ip), vehicle: saline with Tween-80) was 97 % of control, the T/C (endpoint: mean survival time, dose: 12.5 mg/kg/injection, schedule: Q04DX002 (ip), vehicle: saline with Tween-80) was 93 % of control and the T/C (endpoint: mean survival time, dose: 25.0 mg/kg/injection, schedule: Q04DX002 (ip), vehicle: saline with Tween-80) was 93 % of control. For the same compound, the T/C (endpoint: mean survival time, dose: 50.0 mg/kg/injection, schedule: Q04DX002 (ip), vehicle: saline with Tween-80) was 89 % of control and the T/C (endpoint: median survival time, dose: 50.0 mg/kg/injection, schedule: Q04DX002 (ip), vehicle: saline with Tween-80) was 94 % of control.

CCN(Cc1cnc2nc(N)nc(N)c2n1)c1c(Cl)cc(C(=O)NC(CCC(=O)O)C(=O)O)cc1Cl (centres undefined) was tested, and the T/C (endpoint: mean survival time, dose: 3.12 mg/kg/injection, schedule: Q01DX009 (ip), vehicle: sodium bicarbonate) was 117 % of control, the T/C (endpoint: mean survival time, dose: 6.25 mg/kg/injection, schedule: Q01DX009 (ip), vehicle: sodium bicarbonate) was 117 % of control and the T/C (endpoint: mean survival time, dose: 100.0 mg/kg/injection, schedule: Q01DX009 (ip), vehicle: sodium bicarbonate) was 170 % of control.

O=C1/C(=C/c2ccccc2)Cc2ccccc21 was tested, and the T/C [2] was 94 % of control, the T/C [3] was 91 % of control and the T/C [4] was 89 % of control.

COC(C(N)=O)(c1ccccc1)C(F)(F)F (centres undefined) was tested, and the T/C [2] was 101 % of control, the T/C [5] was 102 % of control and the T/C [3] was 105 % of control. For the same compound, the T/C [6] was 100 % of control, the T/C [4] was 94 % of control and the T/C [1] was 89 % of control.

In the case of NC(Cc1cc(I)c(Oc2cc(I)c(O)c(I)c2)c(I)c1)C(=O)O (centres undefined), the T/C (endpoint: mean survival time, dose: 0.04 mg/kg/injection, schedule: Q01DX009 (ip), vehicle: saline + alcohol) is reported as 96 % of control, the T/C (endpoint: mean survival time, dose: 0.04 mg/kg/injection, schedule: Q01DX009 (ip), vehicle: saline) is reported as 88 % of control and 96 % of control and the T/C (endpoint: mean survival time, dose: 0.16 mg/kg/injection, schedule: Q01DX009 (ip), vehicle: saline + alcohol) is reported as 102 % of control. The T/C (endpoint: mean survival time, dose: 0.16 mg/kg/injection, schedule: Q01DX009 (ip), vehicle: saline) was 91 % of control and 98 % of control, the T/C (endpoint: mean survival time, dose: 0.25 mg/kg/injection, schedule: Q01DX009 (ip), vehicle: saline) was 93 % of control and the T/C (endpoint: mean survival time, dose: 0.63 mg/kg/injection, schedule: Q01DX009 (ip), vehicle: saline) was 94 % of control. For the same compound, the T/C (endpoint: mean survival time, dose: 0.64 mg/kg/injection, schedule: Q01DX009 (ip), vehicle: saline + alcohol) was 94 % of control, the T/C (endpoint: mean survival time, dose: 0.64 mg/kg/injection, schedule: Q01DX009 (ip), vehicle: saline) was 87 % of control and 94 % of control and the T/C (endpoint: mean survival time, dose: 1.0 mg/kg/injection, schedule: Q01DX009 (ip), vehicle: saline) was 96 % of control. For the same compound, the T/C (endpoint: mean survival time, dose: 2.0 mg/kg/injection, schedule: Q01DX009 (ip), vehicle: saline) was 88 % of control, the T/C (endpoint: mean survival time, dose: 2.5 mg/kg/injection, schedule: Q01DX009 (ip), vehicle: saline + alcohol) was 93 % of control and the T/C (endpoint: mean survival time, dose: 2.5 mg/kg/injection, schedule: Q01DX009 (ip), vehicle: saline) was 91 % of control and 92 % of control and 94 % of control. The T/C (endpoint: mean survival time, dose: 8.0 mg/kg/injection, schedule: Q01DX009 (ip), vehicle: saline) was 86 % of control and 88 % of control and 90 % of control, the T/C (endpoint: mean survival time, dose: 10.0 mg/kg/injection, schedule: Q01DX009 (ip), vehicle: saline + alcohol) was 94 % of control and the T/C (endpoint: mean survival time, dose: 10.0 mg/kg/injection, schedule: Q01DX009 (ip), vehicle: saline) was 89 % of control and 90 % of control and 92 % of control. For the same compound, the T/C (endpoint: mean survival time, dose: 16.0 mg/kg/injection, schedule: Q01DX009 (ip), vehicle: saline) was 86 % of control and 89 % of control, the T/C (endpoint: mean survival time, dose: 32.0 mg/kg/injection, schedule: Q01DX009 (ip), vehicle: saline) was 83 % of control and 89 % of control and the T/C (endpoint: mean survival time, dose: 40.0 mg/kg/injection, schedule: Q01DX009 (ip), vehicle: saline) was 88 % of control. The T/C (endpoint: mean survival time, dose: 64.0 mg/kg/injection, schedule: Q01DX009 (ip), vehicle: saline) was 87 % of control and 89 % of control and the T/C (endpoint: mean survival time, dose: 128.0 mg/kg/injection, schedule: Q01DX009 (ip), vehicle: saline) was 87 % of control and 90 % of control.

In the case of COC12C(COC(N)=O)C3=C(C(=O)C(C)=C(NC4CONC4=O)C3=O)N1CC1NC12 (centres undefined), the T/C (endpoint: mean survival time, dose: 1.5 mg/kg/injection, schedule: Q01DX001 (ip), vehicle: water) is reported as 97 % of control, the T/C (endpoint: mean survival time, dose: 3.0 mg/kg/injection, schedule: Q01DX001 (ip), vehicle: water) is reported as 98 % of control and the T/C (endpoint: mean survival time, dose: 6.0 mg/kg/injection, schedule: Q01DX001 (ip), vehicle: water) is reported as 95 % of control. For the same compound, the T/C (endpoint: mean survival time, dose: 12.0 mg/kg/injection, schedule: Q01DX001 (ip), vehicle: water) was 98 % of control, the T/C (endpoint: mean survival time, dose: 24.0 mg/kg/injection, schedule: Q01DX001 (ip), vehicle: water) was 97 % of control and the T/C (endpoint: mean survival time, dose: 50.0 mg/kg/injection, schedule: Q01DX001 (ip), vehicle: distilled water + Tween-80) was 112 % of control. For the same compound, the T/C (endpoint: mean survival time, dose: 100.0 mg/kg/injection, schedule: Q01DX001 (ip), vehicle: distilled water + Tween-80) was 114 % of control.

For CC/C(=C/c1ccc2c(c1)OCO2)[N+](=O)[O-], the T/C (endpoint: mean survival time, dose: 100.0 mg/kg/injection, schedule: Q01DX001 (ip), vehicle: saline with Tween-80) was 105 % of control.

With CCc1ncc(CO)n1Cc1ccccc1 the T/C [2] was 100 % of control.

For CCC(=O)Oc1[nH]c(C)c(C(C)=O)c1C, the T/C [2] was 100 % of control, the T/C [5] was 102 % of control and the T/C [3] was 97 % of control. The T/C [6] was 97 % of control, the T/C [4] was 100 % of control and the T/C [1] was 94 % of control.

In the case of CCC(N)Cc1ccc2c(c1)OCO2 (centres undefined), the T/C (endpoint: mean survival time, dose: 25.0 mg/kg/injection, schedule: Q01DX009 (ip), vehicle: saline) is reported as 98 % of control, the T/C (endpoint: mean survival time, dose: 50.0 mg/kg/injection, schedule: Q01DX009 (ip), vehicle: saline) is reported as 93 % of control and the T/C (endpoint: mean survival time, dose: 100.0 mg/kg/injection, schedule: Q01DX009 (ip), vehicle: saline) is reported as 96 % of control. The T/C [5] was 95 % of control.

In the case of O=C(SC1=NCCN1)c1ccccc1, the T/C (endpoint: mean survival time, dose: 100.0 mg/kg/injection, schedule: Q01DX001 (ip), vehicle: saline) is reported as 94 % of control and the T/C (endpoint: mean survival time, dose: 200.0 mg/kg/injection, schedule: Q01DX001 (ip), vehicle: saline) is reported as 102 % of control.

For COc1cccc(C2NC(=O)c3c(n[nH]c3N)S2)c1O (centres undefined), the T/C (endpoint: median survival time, dose: 12.5 mg/kg/injection, schedule: Q01DX009 (ip), vehicle: saline with Tween-80) was 101 % of control, the T/C (endpoint: median survival time, dose: 25.0 mg/kg/injection, schedule: Q01DX009 (ip), vehicle: saline with Tween-80) was 101 % of control and the T/C (endpoint: median survival time, dose: 50.0 mg/kg/injection, schedule: Q01DX009 (ip), vehicle: saline with Tween-80) was 102 % of control. For the same compound, the T/C (endpoint: median survival time, dose: 100.0 mg/kg/injection, schedule: Q01DX009 (ip), vehicle: saline with Tween-80) was 98 % of control, the T/C (endpoint: median survival time, dose: 200.0 mg/kg/injection, schedule: Q01DX009 (ip), vehicle: saline with Tween-80) was 97 % of control and the T/C (endpoint: median survival time, dose: 400.0 mg/kg/injection, schedule: Q01DX009 (ip), vehicle: saline with Tween-80) was 93 % of control.

OC(Cc1ccccn1)c1ccccc1 (centres undefined) was tested, and the T/C [5] was 95 % of control, the T/C [6] was 101 % of control and the T/C [1] was 98 % of control.

CCOC(=O)Nc1cc(N)c2nc(CN(C)c3ccccc3)cnc2n1 was tested, and the T/C (endpoint: mean survival time, dose: 100.0 mg/kg/injection, schedule: Q01DX001 (ip), vehicle: other) was 91 % of control, the T/C (endpoint: mean survival time, dose: 200.0 mg/kg/injection, schedule: Q01DX001 (ip), vehicle: other) was 94 % of control and the T/C (endpoint: mean survival time, dose: 400.0 mg/kg/injection, schedule: Q01DX001 (ip), vehicle: other) was 91 % of control.
